Test system: tumor-bearing mice
Test: Comparative PET/CT imaging experiment in tumor-bearing mice (Test Example 2)
Type: in vivo, nude mice
Conditions: PET/CT whole-body imaging 2 hours after tail vein injection of about 0.1 ml (1 mCi/ml); MDA-MB-231 bone metastasis model
Description: In this test example, the PET/CT imaging experiment of the ^68Ga-labeled compound represented by Formula II-1 of the present disclosure in tumor-bearing mice was disclosed. • (1) Establishment of tumor-bearing mouse model: 12 SPF female nude mice were prepared. After isoflurane anesthesia, the skin around the left knee joint was disinfected. The left hind limb was bent and an insulin needle (29G needle) was used to insert vertically into the femur from the concave point of the femoral head joint fossa. The needle was slowly rotated into the bone marrow cavity and 25µl (containing about 2×10^6 cells) of MDA-MB-231 (human breast cancer cells, from ATCC) cell culture medium was injected. After disinfection, the hole was sealed with sterile bone wax, and the animal was placed on a 37°C hot plate to rewarm. After recovery, it was returned to the cage for continued feeding. • (2) Verification of tumor-bearing mouse model: 4 weeks after inoculation, 12 nude mice were scanned using Micro-CT respectively.
In this test example, a comparative PET/CT imaging experiment of the ^68Ga-labeled compound represented by Formula II-1 of the present disclosure and ^68Ga-DOTA-ibandronic acid in tumor-bearing mice was disclosed. The ^68Ga-DOTA-ibandronic acid was prepared according to the method No.5 in Table 1 in the description of the published Chinese patent application with application number 202111419244.X.
Four successfully modeled tumor-bearing mice were taken, in which two mice were injected with about 0.1 ml of the freshly prepared ^68Ga-labeled compound represented by Formula II-1 (with a concentration of 1 mCi/ml) via the tail vein, and the other two mice were injected with about 0.1 ml of the freshly prepared ^68Ga-DOTA-ibandronic acid (with a concentration of 1 mCi/ml) via the tail vein. PET/CT whole-body imaging was performed 2 hours after injection.
The T/N value was calculated according to the following formula: T/N value = SUVmax of lesion/SUVmax of background tissue [formula] Table 1: Imaging results of tumor-bearing mice

In the case of ^68Ga-DOTA-ibandronic acid, the “Head SUVmax” value is reported as 0.783, the “Head SUVmin” value is reported as 0.230 and the “Lesion SUVmax” value is reported as 0.647. The “Lesion SUVmin” value was 0.139, the “Liver SUVmax” value was 0.067 and the “Liver SUVmin” value was 0.046.

Source: patent EP4671258A1, “RADIOACTIVE LABEL OF RISEDRONIC ACID DERIVATIVE, AND PRECURSOR COMPOUND THEREOF, AND PREPARATION METHOD THEREFOR AND USE THEREOF” (The Affiliated Hospital of Southwest Medical University, priority 2023, dated 2024)
